Columns and labels:
Test in all cases: relative viability (nuclei count vs DMSO), 5 days (fraction); higher = more cells survive
Erlotinib + AZD7762 = compound: C#Cc1cccc(Nc2ncnc3cc(OCCOC)c(OCCOC)cc23)c1 [Erlotinib] + NC(=O)Nc1cc(-c2cccc(F)c2)sc1C(=O)N[C@H]1CCCNC1 [AZD7762] (partner 0.2 µM)
Summary of the method: (§1)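 Lung cancer cell lines in 1536-well plates were dosed by pin tool the day after seeding, either with one drug alone or with a fixed anchor-drug dose plus five library-drug doses (not always all listed) in √10 steps. After 5 days, cells were fixed and their nuclei stained in one step (final 0.05% Triton X-100, 1% formaldehyde, 1 ug/ml Hoechst), then counted on 4× images. Relative viability is the nuclei count in treated wells divided by that in vehicle wells. Values are medians of duplicate plates.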

Erlotinib + Vorinostat = compound: C#Cc1cccc(Nc2ncnc3cc(OCCOC)c(OCCOC)cc23)c1 [Erlotinib] + O=C(CCCCCCC(=O)Nc1ccccc1)NO [Vorinostat] (partner 1 µM)
Summary of the method: as §1

Erlotinib + Dasatinib = compound: C#Cc1cccc(Nc2ncnc3cc(OCCOC)c(OCCOC)cc23)c1 [Erlotinib] + Cc1nc(Nc2ncc(C(=O)Nc3c(C)cccc3Cl)s2)cc(N2CCN(CCO)CC2)n1 [Dasatinib] (partner 0.075 µM)
Summary of the method: as §1

Erlotinib + Crizotinib = compound: C#Cc1cccc(Nc2ncnc3cc(OCCOC)c(OCCOC)cc23)c1 [Erlotinib] + C[C@@H](Oc1cc(-c2cnn(C3CCNCC3)c2)cnc1N)c1c(Cl)ccc(F)c1Cl [Crizotinib] (partner 1 µM)
Summary of the method: as §1

Erlotinib + Phenformin = compound: C#Cc1cccc(Nc2ncnc3cc(OCCOC)c(OCCOC)cc23)c1 [Erlotinib] + N=C(N)NC(=N)NCCc1ccccc1 [Phenformin] (partner 250 µM)
Summary of the method: as §1

Row | Cell Line | relative viability (Erlotinib + AZD7762; first compound 0.02 µM) | relative viability (Erlotinib + AZD7762; first compound 0.2 µM) | relative viability (Erlotinib + AZD7762; first compound 0.6325 µM) | relative viability (Erlotinib + AZD7762; first compound 2 µM) | relative viability (Erlotinib + Vorinostat; first compound 0.02 µM) | relative viability (Erlotinib + Vorinostat; first compound 0.6325 µM) | relative viability (Erlotinib + Vorinostat; first compound 2 µM) | relative viability (Erlotinib + Dasatinib; first compound 0.02 µM) | relative viability (Erlotinib + Dasatinib; first compound 0.2 µM) | relative viability (Erlotinib + Dasatinib; first compound 0.6325 µM) | relative viability (Erlotinib + Dasatinib; first compound 2 µM) | relative viability (Erlotinib + Crizotinib; first compound 0.02 µM) | relative viability (Erlotinib + Crizotinib; first compound 0.2 µM) | relative viability (Erlotinib + Crizotinib; first compound 0.6325 µM) | relative viability (Erlotinib + Crizotinib; first compound 2 µM) | relative viability (Erlotinib + Phenformin; first compound 0.02 µM) | relative viability (Erlotinib + Phenformin; first compound 0.2 µM) | relative viability (Erlotinib + Phenformin; first compound 0.6325 µM) | relative viability (Erlotinib + Phenformin; first compound 2 µM) | relative viability (Erlotinib + Vorinostat; first compound 0.2 µM)
1 | 201T | 0.596 | 0.57 | 0.619 | 0.546 | 0.573 | 0.89 | 0.816 | 0.646 | 0.548 | 0.543 | 0.541 | 1 | 0.943 | 0.905 | 0.951 | 0.468 | 0.408 | 0.465 | 0.421 | 
2 | A549 |  |  |  |  |  |  |  |  |  |  |  | 0.799 | 0.796 | 0.792 | 0.551 | 0.225 | 0.196 | 0.178 | 0.199 | 
3 | A-427 | 0.735 | 0.763 | 0.843 | 0.767 | 0.844 | 0.932 | 0.892 | 0.832 | 0.687 | 0.842 | 0.676 | 0.966 | 1.03 | 0.887 | 0.838 | 0.282 | 0.344 | 0.423 | 0.335 | 0.834
4 | ABC-1 | 0.789 |  | 0.647 | 0.507 |  | 1.34 | 0.985 | 0.564 | 0.491 | 0.506 | 0.565 | 1.07 | 1.14 | 1.44 | 1.18 | 0.248 | 0.248 | 0.217 | 0.233 | 1.13
5 | BEN | 0.554 | 0.824 | 0.843 |  | 0.66 | 0.637 | 0.547 | 0.318 | 0.381 | 0.413 | 0.3 | 0.957 | 0.738 | 0.913 | 0.779 | 0.276 | 0.248 | 0.273 | 0.269 | 0.523
6 | CAL-12T | 0.63 | 0.688 | 0.529 | 0.544 | 0.763 | 0.359 | 0.313 | 0.632 | 0.307 | 0.266 | 0.15 | 0.964 | 0.636 | 0.356 | 0.249 | 0.543 | 0.396 | 0.339 | 0.262 | 0.54
7 | COR-L23 |  |  |  |  | 0.583 | 0.489 | 0.362 | 0.552 | 0.554 | 0.457 | 0.452 | 0.718 | 0.681 | 0.666 | 0.614 | 0.439 | 0.452 | 0.448 | 0.416 | 0.423
8 | COR-L 105 |  |  |  |  | 0.776 | 0.425 | 0.377 | 0.302 | 0.173 | 0.182 | 0.122 |  | 0.656 | 0.39 | 0.198 | 0.525 | 0.245 | 0.322 | 0.216 | 0.564
9 | Calu-6 |  |  |  |  |  |  |  |  |  |  |  | 0.931 | 0.719 | 0.853 | 0.714 |  |  |  |  | 
10 | ChaGo-K-1 |  | 0.922 | 0.845 | 0.76 | 0.784 | 0.82 | 0.74 | 0.626 | 0.512 | 0.636 | 0.5 | 1.24 | 1.16 | 1.2 | 1.1 | 0.507 | 0.445 | 0.482 | 0.437 | 0.721
11 | EBC-1 |  |  |  |  |  |  |  |  |  |  |  | 0.206 | 0.189 | 0.169 | 0.164 |  |  |  |  | 
12 | EKVX | 0.686 | 0.693 | 0.423 | 0.219 | 0.716 | 0.323 | 0.259 | 0.544 | 0.242 | 0.321 | 0.223 | 1.04 | 0.457 | 0.287 | 0.147 | 0.245 | 0.205 | 0.127 | 0.137 | 0.372
13 | EMC-BAC-2 | 1.1 | 1.08 | 1.26 | 1.04 |  | 0.524 | 0.446 | 0.33 | 0.314 | 0.337 | 0.342 | 0.806 | 0.68 | 0.83 | 0.63 | 0.578 | 0.571 | 0.559 | 0.502 | 0.543
14 | EPLC-272H | 0.205 | 0.209 | 0.21 | 0.202 | 0.459 | 0.396 | 0.292 | 0.461 | 0.217 | 0.358 | 0.279 | 0.911 | 0.957 | 0.884 | 0.596 | 0.353 | 0.254 | 0.321 | 0.212 | 0.411
15 | H3255 | 0.794 | 0.619 | 0.516 | 0.238 | 0.705 | 0.628 | 0.206 | 0.322 | 0.347 | 0.167 | 0.278 | 0.999 | 0.509 | 0.305 | 0.136 | 0.374 | 0.226 | 0.246 | 0.243 | 0.817
16 | HARA | 0.385 | 0.383 | 0.333 | 0.259 | 0.643 | 0.402 | 0.445 | 0.28 | 0.265 | 0.253 | 0.151 | 1.04 | 0.983 | 0.79 | 0.505 | 0.44 | 0.407 | 0.444 | 0.243 | 0.598
17 | HCC-15 | 1.34 | 1.25 | 1.31 | 1.07 | 0.876 | 0.868 | 0.676 | 0.66 | 0.612 | 0.605 | 0.533 | 0.784 | 0.833 | 0.936 | 0.7 | 0.472 | 0.491 | 0.63 | 0.382 | 
18 | HCC-44 | 1.01 | 1.02 | 0.984 | 0.96 | 1.21 | 1.13 | 1.16 |  |  |  |  | 0.797 | 0.895 | 0.843 | 0.798 | 0.239 | 0.162 | 0.22 | 0.165 | 1.13
19 | HCC-78 | 0.5 | 0.55 | 0.524 | 0.369 | 0.428 | 0.36 | 0.335 | 0.319 | 0.36 | 0.364 | 0.225 | 0.266 | 0.254 | 0.271 | 0.217 | 0.657 | 0.681 | 0.684 | 0.531 | 0.437
